From article PMC9321663, “The DevTox Germ Layer Reporter Platform: An Assay Adaptation of the Human Pluripotent Stem Cell Test” (Toxics, 2022)
“Also recorded” adds a separate entry of the source. Read-outs that look alike come from different tables or passages of the source.

Legend:
[1] = tested on: SOX17 (endoderm marker) in RUES2-GLR cells; experiment: DevTox GLR-Endo assay: decrease in percent SOX17-positive cells (AEID 3094, Sox17_dn); conditions: for Emax / AC50: Homo sapiens; for Hit Call: Table S2, SOX17-positive cells, cutoff 3*bmad; for DevTox ACC: Table S2, percent SOX17-positive cells; for DevTox ACC / DevTox-GLR Endo ACC: 48 h exposure; for HIT−CALL: tcpl plot AEID3094, COFF 20.3; for DevTox-GLR Endo ACC: activity concentration at cutoff, SOX17-positive cells; for hit call designation (in words): DevTox GLR-Endo prediction against developmental toxicant classification; for DevTox % Max Inhibition: Table S2, percent SOX17-positive cells relative to DMSO; for MAX_MEAN: tcpl plot AEID3094, maximum mean response; for MAX_MED: tcpl plot AEID3094, maximum median response
Method in brief: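 RUES2-GLR cells under endoderm differentiation exposed to test chemicals for 48 h in total, with 0.2% DMSO solvent control and SB431542 (1 µM) as developmental-toxicant control. Endpoints: decrease in total cell count and in percent SOX17-positive cells; n = 4 biological replicates minimum.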

RUES2-GLR cells = experiment: DevTox GLR-Endo assay: decrease in total cell count, cytotoxicity (AEID 3098, CellCount_dn); conditions: for Emax: Homo sapiens, read-out: Cell Count % Max Inhibition; for Cell Count % Max Inhibition: Table S2, cell count relative to DMSO
[2] = tested on: SOX17 (endoderm marker) in RUES2-GLR cells; experiment: DevTox GLR-Endo assay: increase in percent SOX17-positive cells (AEID 3093, Sox17_up); type: cell-based, human; conditions: for Emax: Homo sapiens; for HIT−CALL: tcpl plot AEID3093, COFF 20.3
Protocol: (§1) The total test chemical incubation period was 48 h.
(§2) (Supplementary Materials).

[3] = tested on: BRA (mesoderm marker) in RUES2-GLR cells; experiment: DevTox GLR-Endo assay: increase in percent BRA-positive cells (AEID 3096, Bra_up); type: cell-based, human; conditions: for HIT−CALL: tcpl plot AEID3096, COFF 0.774; for MAX_MEAN: tcpl plot AEID3096, maximum mean response; for MAX_MED: tcpl plot AEID3096, maximum median response
Protocol: as §1, §2

[4] = tested on: o/c ratio in H9 embryonic stem cells; conditions: Teratogen Index, cited from earlier work; for quickPredict TI: o/c ratio
H9 embryonic stem cells = conditions: cited from earlier work
[5] = cited from earlier work; for Classification: developmental toxicant classification (Teratogen / Non-Teratogen) of reference and training chemicals, ref DOI per chemical: 10.1093/toxsci/kft239, 10.1093/toxsci/kfaa014, 10.1177/026119290203000204, 10.1038/s41598-020-59542-x; for DT Class.: developmental toxicant classification; for Development Toxicant Classification: Table S2
[6] = tested on: SOX2 (ectoderm and pluripotency marker) in RUES2-GLR cells; experiment: DevTox GLR-Endo assay: increase in percent SOX2-positive cells (AEID 3095, Sox2_up); conditions: for MAX_MEAN: tcpl plot AEID3095, maximum mean response; for MAX_MED: tcpl plot AEID3095, maximum median response; for AC50 / Emax: Homo sapiens; for AC50: read-out: ga (winning model); for Emax: read-out: tp (winning model)
Protocol: RUES2-GLR cells were seeded 24 h prior to differentiation initiation into vitronectin-coated 384-well CellCarrier Ultra plates (10.6 mm^2/well) (Perkin Elmer, Waltham, MA, USA). Vitronectin (0.5 µg/cm^2)-coated plates were prepared and stored at 4 °C, wrapped in parafilm, for less than seven days and incubated at room temperature for one hour prior to cell seeding. […] Cells were dispensed into 20 µL coating solution using a Certus FLEX Micro Dispenser (Fritz Gyger, Gwatt, Switzerland) with a 0.45 µm valve to a final volume of 100 µL and density of 2.8 × 10^3 cells per well.
Following a 24 h post-seeding incubation period (Time = 0 h) (Figure 3A), directed endoderm differentiation was initiated with the PSC Definitive Endoderm Induction kit (Gibco, Waltham, MA, USA). […] A target dilution series (0.002–200 µM) was generated by dispensing variable nanoliter volumes of test chemical and backfilling with a complementary volume of DMSO using Echo Cherry Pick software (v.1.6.2). Wells were backfilled with 50 µL of induction medium using a Certus FLEX Micro Dispenser with 0.45 µm valves. Test compound treatment plates were mixed on a Multi-Microplate Genie mixer at 700 rpm for 10 min and subsequently incubated for two hours in a humidified atmosphere at 37 °C with 5% CO2. Each chemical treatment (0 h–Medium A; 24 h–Medium B) were prepared the day of treatment. At 0 h, cell culture medium was aspirated from the assay plate at a rate of 1 µL/s and 40 µL of Medium A ± test chemical applied using a CyBio FeliX automated liquid handler (Analytik Jena, Jena, Germany). At 24 h, conditioned cell culture medium was aspirated and 40 µL of Medium B ± test chemical was applied. At 48 h, cells were prepared for high-content image acquisition by fixation and nuclear staining. The total test chemical incubation period was 48 h. For fixation, a 4% paraformaldehyde (PFA) solution was achieved by adding 40 µL of 8% PFA directly to cell culture medium using a CyBio FeliX liquid handler. […] Following an additional 30 min incubation period at room temperature, staining solution was aspirated, 50 µL of DPBS was added, and plate sealed with MicroAmp Optical Adhesive Film (Applied Biosystems, Waltham, MA, USA).
Images were acquired within 12 h post-fixation using an Opera Phenix High-Content Screening System (Perkin Elmer, Waltham, MA, USA). […] Cell identification and mean biomarker fluorescent intensities were calculated using Harmony image analysis software (Perkin Elmer, Waltham, MA, USA). Cell nuclei were identified using the object classifying algorithm C of the software with border objects excluded using the “Remove Border Objects” feature. Mean cell biomarker intensity statistics were gathered from each object and exported for further analysis using a custom script in Python version 3.7.4 [61] […] For each plate, pluripotent-negative control wells were used to establish baseline intensity values and a cutoff threshold for determining SOX17 and BRA biomarker-positive cells. Endoderm differentiated positive control wells were used to establish baseline intensity values and a cutoff threshold for SOX2-positive cells. Cells with a mean intensity five times the baseline median absolute deviation (5*bmad) above the median cell intensity for plate-based control population technical replicates were considered positive. Well-based cell counts, reflected by the sum of total counted objects from all fields, were used to calculate the percent responders for each respective biomarker and evaluate cytotoxicity. Well-level results were exported for data modeling in the ToxCast Pipeline.
The ToxCast Pipeline R package (tcpl v.2.0.2) was used to normalize, fit, and qualify concentration-response screening data [63].

in vitro = conditions: human
[7] = tested on: SOX17 in H9 human ESC line; conditions: SOX17 half-maximal inhibition concentration; read-out: hPST IC50; cited from earlier work
H9 human ESC line = conditions: cited from earlier work
[8] = read-out: DevTox % Max Inhibition
[9] = tcpl plot AEID3093, maximum mean response, read-out: MAX_MEAN
[10] = tcpl plot AEID3093, maximum median response, read-out: MAX_MED
[11] = concentration at cell viability cutoff
[12] = chemicals common with quickPredict
[13] = read-out: ga (winning model), tcpl plot AEID3094, gain parameter of winning curve fit (log concentration, µM axis), hit calls only (converted)
[14] = tcpl plot AEID3093, maximum mean response
[15] = tcpl plot AEID3093, maximum median response

Row | Compound | Cell Count ACC (RUES2-GLR cells; human, 48 h) | Emax [1, 8] | Emax ([1]; read-out: MAX_MEAN) | Emax ([1]; read-out: MAX_MED) | Hit Call [1] | DevTox ACC [1] | HIT−CALL [1] | Emax (RUES2-GLR cells) | Emax [2, 9] | Emax [2, 10] | HIT−CALL [2] | HIT−CALL [3] | MAX_MEAN [3] | quickPredict TI [4] | quickPredict CV (H9 embryonic stem cells; [11]) | Classification [5] | DT Class. [5, 12] | MAX_MEAN [6] | MAX_MED [6] | Development Toxicant Classification [5] | further results
1 | CC(C)(c1ccc(O)cc1)c1ccc(O)cc1 [Bisphenol A] | 21.1157 µM | 102% | 102% | 102% | Positive | 31.7467 µM | 1 | 94.4% | 9.9% | 10.7% | 0 | – | – | – | 39.4 µM | Teratogen | Pos | 4.11 Percent Activity | 3.32 Percent Activity | Positive | AC50 [1, 13]: 38.9 µM; Emax ([1]; read-out: tp (winning model)): 102%; DevTox-GLR Endo ACC [1]: 31.75 µM; DevTox-GLR Endo CC (RUES2-GLR cells; human, 48 h): 21.12 µM; AC50 [6]: 38 µM; Emax [6]: 3.24%
2 | NC(=O)NO [Hydroxyurea] | – | – | – | – | Negative | >200 µM | 0 | – | – | – | 0 | 0 | 0.733 Percent Activity | 74.9 µM | 237 µM | Teratogen | Pos | 1.5 Percent Activity | 0.557 Percent Activity | Positive | hit call designation (in words) [1]: false negative; DevTox % Max Inhibition [1]: 15.8672%; maximum observed effect level class (% max inhibition) ([1]; stratification of training set chemicals): weak (weak (0–20% max inhibition)); MAX_MEAN [1]: 17.2 Percent Activity; MAX_MED [1]: 15.9 Percent Activity; Cell Count ACC (RUES2-GLR cells; Table S2, 48 h exposure): 64.5432 µM; Cell Count % Max Inhibition (RUES2-GLR cells): 34.555%; DevTox-GLR Endo CC (RUES2-GLR cells; concentration at cell count cutoff, 48 h exposure): 64.54 µM; effect on cell count (in words) (RUES2-GLR cells; training set, 48 h exposure): significant cell loss that did not impact SOX17-positive populations; also recorded: significant decreases in cell count; MAX_MEAN [2, 14]: 13.7 Percent Activity; MAX_MED [2, 15]: 16 Percent Activity; MAX_MED [3]: 0.69 Percent Activity
3 | CC(O)CO (stereo not shown) [1,2-Propylene glycol] | – | – | – | – | Negative | >200 µM | 0 | – | – | – | 0 | 0 | 0.919 Percent Activity | 327552 µM | – | Non-Teratogen | Neg | 0.616 Percent Activity | 0.577 Percent Activity | Negative | DevTox % Max Inhibition [1]: 5.484%; MAX_MEAN [1]: 3.45 Percent Activity; MAX_MED [1]: 5.48 Percent Activity; Cell Count ACC (RUES2-GLR cells; Table S2, 48 h exposure): >200 µM; Cell Count % Max Inhibition (RUES2-GLR cells): 12.9966%; MAX_MEAN [2, 14]: 8.27 Percent Activity; MAX_MED [2, 15]: 7.58 Percent Activity; MAX_MED [3]: 0.955 Percent Activity; quickPredict TI (µM) [4]: 327,552 µM; quickPredict CV (H9 embryonic stem cells; cell viability): 246664 µM; quickPredict CV (µM) (H9 embryonic stem cells; [11]): 246,664 µM
4 | CS(=O)(=O)OCCCCOS(C)(=O)=O [Busulfan] | 5.795 µM | 100% | 100% | 100% | Positive | 25.262 µM | 1 | 82.3% | 7.27% | 12.6% | 0 | 0 | 2.12 Percent Activity | 2.31 µM | 4.91 µM | Teratogen | Pos | 2.43 Percent Activity | 2.59 Percent Activity | Positive | AC50 [1, 13]: 38.9 µM; Emax ([1]; read-out: tp (winning model)): 101%; DevTox-GLR Endo ACC [1]: 25.26 µM; effect on cell count (in words) (RUES2-GLR cells): significant decreases in cell count; DevTox-GLR Endo CC (RUES2-GLR cells; human, 48 h): 5.79 µM; MAX_MED [3]: 2.19 Percent Activity; AC50 [6]: 145 µM; Emax [6]: 4.09%
5 | O=c1[nH]cc(F)c(=O)[nH]1 [5-Fluorouracil] | 4.179 µM | 102% | 102% | 102% | Positive | 7.071 µM | 1 | 91% | 3.38% | 4.48% | 0 | – | – | 2.02 µM | 1.45 µM | Teratogen | Pos | 6.64 Percent Activity | 5.57 Percent Activity | Positive | AC50 ([1]; 48 h, read-out: DevTox-GLR Endo AC50 (µM), SOX17 half-maximal activity concentration, 48 h exposure): 8.48 µM; AC50 [1, 13]: 8.49 µM; Emax ([1]; read-out: tp (winning model)): 102%; DevTox-GLR Endo ACC [1]: 7.07 µM; CC50 at 48 h (in vitro): 5.72 µM; effect on cell count (in words) (RUES2-GLR cells): significant decreases in cell count; DevTox-GLR Endo CC (RUES2-GLR cells; human, 48 h): 20.34 µM; IC50 [7]: 0.6 µM; hPST TC50 (H9 human ESC line; cytotoxicity half-maximal concentration): 0.7 µM; hPST TC50 (H9 human ESC line; hPST cytotoxicity): 0.7 µM; DT Class. ([5]; chemicals common with hPST): Pos; AC50 [6]: 18.6 µM; Emax [6]: 5.33%

Continued, in another order:

Row | Cell Count ACC (RUES2-GLR cells; human, 48 h) | Compound | Emax [1, 8] | Emax ([1]; read-out: MAX_MEAN) | Emax ([1]; read-out: MAX_MED) | Hit Call [1] | DevTox ACC [1] | HIT−CALL [1] | Emax (RUES2-GLR cells) | Emax [2, 9] | Emax [2, 10] | HIT−CALL [2] | HIT−CALL [3] | MAX_MEAN [3] | quickPredict TI [4] | quickPredict CV (H9 embryonic stem cells; [11]) | Classification [5] | DT Class. [5, 12] | MAX_MEAN [6] | MAX_MED [6] | Development Toxicant Classification [5] | further results
6 | >200 µM | O=C(O)c1ccccc1O [Salicylic Acid] | 6.91% | 7.1% | 6.91% | Negative | >200 µM | 0 | 11.5% | 8.74% | 9.69% | 0 | 0 | 0.835 Percent Activity | 513 µM | 1795 µM | Non-Teratogen | Neg | 0.533 Percent Activity | 0.494 Percent Activity | – | MAX_MED [3]: 0.894 Percent Activity
7 | 0.3474 µM | CN(Cc1cnc2nc(N)nc(N)c2n1)c1ccc(C(=O)N[C@@H](CCC(=O)O)C(=O)O)cc1 [Methotrexate] | 24.6% | 22.4% | 24.6% | Negative | >200 µM | 0 | 44.6% | 2.23% | 2.87% | 0 | 1 | 1.26 Percent Activity | 0.059 µM | 0.062 µM | Teratogen | Pos | 0.917 Percent Activity | 0.899 Percent Activity | Positive | hit call designation (in words) [1]: borderline calls; Emax ([1]; read-out: maximum observed effect level class (% max inhibition)): 20 to 80%; effect on cell count (in words) (RUES2-GLR cells): significant decreases in cell count; DevTox-GLR Endo CC (RUES2-GLR cells; human, 48 h): 0.35 µM; effect on cell count (in words) (RUES2-GLR cells; human, 48 h): significant cell loss that did not impact SOX17-positive populations; MAX_MED [3]: 1.19 Percent Activity; AC50 [6]: 0.0525 µM; Emax [6]: 0.771%
